Converted amounts (≈) assume the structure as drawn.

Holding throughout (assay type): functional
What all share (conditions): read-out: MIC100

Assay [1] deals with Pseudomonas aeruginosa. The assay is described as follows: Antibacterial activity against Pseudomonas aeruginosa PAO1 assessed as inhibition of bacterial growth incubated for 24 hrs by broth microdilution method. (In general: In broth dilution the organism is exposed to a series of concentrations in liquid medium.)
The subject of assay [2] is Acinetobacter baumannii. The assay is described as follows: Antibacterial activity against Acinetobacter baumannii assessed as inhibition of bacterial growth incubated for 24 hrs by broth microdilution method.
Assay [3] relates to Moraxella catarrhalis. The experiment in a line: Antibacterial activity against Moraxella catarrhalis assessed as inhibition of bacterial growth incubated for 24 hrs by broth microdilution method.
Assay [4] deals with Pseudomonas aeruginosa. The experiment in a line: Antibacterial activity against Pseudomonas aeruginosa assessed as inhibition of bacterial growth incubated for 24 hrs by broth microdilution method.
In assay [5] the test system is Escherichia coli. The experiment in a line: Antibacterial activity against Escherichia coli assessed as inhibition of bacterial growth incubated for 24 hrs by broth microdilution method.
Assay [6] relates to Klebsiella pneumoniae. The assay is described as follows: Antibacterial activity against Klebsiella pneumoniae assessed as inhibition of bacterial growth incubated for 24 hrs by broth microdilution method.

For the molecule `CC(C)CCCCC(=O)N[C@@H](CCN)C(=O)N[C@H](C(=O)N[C@@H](CCN)C(=O)N[C@H]1CCNC(=O)[C@H]([C@@H](C)O)NC(=O)[C@H](CCN)NC(=O)[C@H](CCN)NC(=O)[C@H](CC(C)C)NC(=O)[C@@H](Cc2ccccc2)NC(=O)[C@H](CCN)NC1=O)[C@@H](C)OC(=O)[C@@H](N)CC(C)C`, the MIC is 4 µg/mL (≈ 3.07 µM) in assay [1]; 0.06 µg/mL (≈ 0.0461 µM) in assay [2]; over 16 µg/mL in assay [3]; 0.125 µg/mL (≈ 0.096 µM) in assay [4]; 0.25 µg/mL (≈ 0.192 µM) in assay [5]; 1 µg/mL (≈ 0.768 µM) in assay [6].

Turning to `CC(C)CCCCC(=O)N[C@@H](CCN)C(=O)N[C@H](C(=O)N[C@@H](CCN)C(=O)N[C@H]1CCNC(=O)[C@H]([C@@H](C)OC(=O)CN)NC(=O)[C@H](CCN)NC(=O)[C@H](CCN)NC(=O)[C@H](CC(C)C)NC(=O)[C@@H](Cc2ccccc2)NC(=O)[C@H](CCN)NC1=O)[C@@H](C)OC(=O)CN`, the MIC is 1 µg/mL (≈ 0.767 µM) in assay [1]; 0.125 µg/mL (≈ 0.0959 µM) in assay [2]; over 64 µg/mL in assay [3]; 0.25 µg/mL (≈ 0.192 µM) in assay [4]; 0.25 µg/mL (≈ 0.192 µM) in assay [5]; 1 µg/mL (≈ 0.767 µM) in assay [6].

For `CC[C@H](C)CCCCC(=O)N[C@@H](CCN)C(=O)N[C@H](C(=O)N[C@@H](CCN)C(=O)N[C@H]1CCNC(=O)[C@H]([C@@H](C)O)NC(=O)[C@H](CCN)NC(=O)[C@H](CCN)NC(=O)[C@H](CC(C)C)NC(=O)[C@@H](Cc2ccccc2)NC(=O)[C@H](CCN)NC1=O)[C@@H](C)OC(=O)CN`, the MIC in assay [1] was 4 µg/mL (≈ 3.17 µM); in assay [2] it was 0.125 µg/mL (≈ 0.0992 µM); in assay [3] it was over 64 µg/mL; in assay [4], 0.125 µg/mL (≈ 0.0992 µM); in assay [5], 0.25 µg/mL (≈ 0.198 µM); in assay [6], 0.5 µg/mL (≈ 0.397 µM).

For `CC(C)CCCCC(=O)N[C@@H](CCN)C(=O)N[C@H](C(=O)N[C@@H](CCN)C(=O)N[C@H]1CCNC(=O)[C@H]([C@@H](C)O)NC(=O)[C@H](CCN)NC(=O)[C@H](CCN)NC(=O)[C@H](CC(C)C)NC(=O)[C@@H](Cc2ccccc2)NC(=O)[C@H](CCN)NC1=O)[C@@H](C)OC(=O)[C@@H](N)Cc1c[nH]cn1`, the MIC in assay [1] is 2 µg/mL (≈ 1.51 µM); in assay [2], 0.125 µg/mL (≈ 0.0942 µM); in assay [3] it was 8 µg/mL (≈ 6.03 µM); in assay [4] it was 0.5 µg/mL (≈ 0.377 µM); in assay [5] it was 0.5 µg/mL (≈ 0.377 µM); in assay [6], 4 µg/mL (≈ 3.02 µM).

Regarding `CCCCCCCC(=O)N[C@@H](CCN)C(=O)N[C@H](C(=O)N[C@@H](CCN)C(=O)N[C@H]1CCNC(=O)[C@H](CS)NC(=O)[C@H](CCN)NC(=O)[C@H](CCN)NC(=O)[C@H](CC(C)C)NC(=O)[C@@H](Cc2ccccc2)NC(=O)[C@H](CCN)NC1=O)[C@@H](C)O`, the MIC in assay [1] was determined as 2 µg/mL (≈ 1.68 µM); in assay [2], 0.25 µg/mL (≈ 0.21 µM); in assay [3], 4 µg/mL (≈ 3.36 µM); in assay [4] it was 0.06 µg/mL (≈ 0.0504 µM); in assay [5] it was 2 µg/mL (≈ 1.68 µM); in assay [6], 2 µg/mL (≈ 1.68 µM).

For the molecule `CC(C)CCCCC(=O)N[C@@H](CCN)C(=O)N[C@H](C(=O)N[C@@H](CCN)C(=O)N[C@H]1CCNC(=O)[C@H]([C@@H](C)O)NC(=O)[C@H](CCN)NC(=O)[C@H](CCN)NC(=O)[C@H](CC(C)C)NC(=O)[C@@H](Cc2ccccc2)NC(=O)[C@H](CCN)NC1=O)[C@@H](C)OC(=O)[C@@H](N)C(C)C`, the MIC in assay [1] is 2 µg/mL (≈ 1.55 µM); in assay [2], 1 µg/mL (≈ 0.776 µM); in assay [3] it was over 32 µg/mL; in assay [4], 0.5 µg/mL (≈ 0.388 µM); in assay [5], 0.5 µg/mL (≈ 0.388 µM); in assay [6], 4 µg/mL (≈ 3.1 µM).

For the molecule `CC(=O)O[C@H](C)[C@H](NC(=O)[C@H](CCN)NC(=O)CCCCC(C)C)C(=O)N[C@@H](CCN)C(=O)N[C@H]1CCNC(=O)[C@H]([C@@H](C)O)NC(=O)[C@H](CCN)NC(=O)[C@H](CCN)NC(=O)[C@H](CC(C)C)NC(=O)[C@@H](Cc2ccccc2)NC(=O)[C@H](CCN)NC1=O`, the MIC in assay [1] is 16 µg/mL (≈ 13 µM); in assay [2], 8 µg/mL (≈ 6.5 µM); in assay [3], 16 µg/mL (≈ 13 µM); in assay [4], 0.5 µg/mL (≈ 0.406 µM); in assay [5] it was 4 µg/mL (≈ 3.25 µM); in assay [6] it was over 32 µg/mL.

Take `CC(C)CCCCC(=O)N[C@@H](CCN)C(=O)N[C@@H](Cc1ccccc1)C(=O)N[C@@H](CCN)C(=O)N[C@H]1CCNC(=O)[C@H]([C@@H](C)O)NC(=O)[C@H](CCN)NC(=O)[C@H](CCN)NC(=O)[C@H](CC(C)C)NC(=O)[C@@H](Cc2ccccc2)NC(=O)[C@H](CCN)NC1=O`: the MIC in assay [1] was 4 µg/mL (≈ 3.24 µM); in assay [2], 16 µg/mL (≈ 12.9 µM); in assay [3], 4 µg/mL (≈ 3.24 µM); in assay [4], 0.5 µg/mL (≈ 0.405 µM); in assay [5] it was 4 µg/mL (≈ 3.24 µM); in assay [6], over 32 µg/mL.

As for `CC(C)CCCCC(=O)N[C@@H](CCN)C(=O)N[C@H](C(=O)N[C@@H](CCN)C(=O)N[C@H]1CCNC(=O)[C@H]([C@@H](C)O)NC(=O)[C@H](CCN)NC(=O)[C@H](CCN)NC(=O)[C@H](CC(C)C)NC(=O)[C@@H](Cc2ccccc2)NC(=O)[C@H](CCN)NC1=O)[C@@H](C)OC(=O)[C@@H](N)Cc1ccccc1`, the MIC in assay [1] was 4 µg/mL (≈ 2.99 µM); in assay [2], 0.25 µg/mL (≈ 0.187 µM); in assay [3], over 32 µg/mL; in assay [4], 0.25 µg/mL (≈ 0.187 µM); in assay [5], 0.5 µg/mL (≈ 0.374 µM); in assay [6], 0.5 µg/mL (≈ 0.374 µM).

For `CCCCCCCC(=O)N[C@@H](CCN)C(=O)N[C@H](C(=O)N[C@@H](CCN)C(=O)N[C@H]1CCNC(=O)[C@H](C(C)C)NC(=O)[C@H](CCN)NC(=O)[C@H](CCN)NC(=O)[C@H](CC(C)C)NC(=O)[C@@H](Cc2ccccc2)NC(=O)[C@H](CCN)NC1=O)[C@@H](C)O`, the MIC in assay [1] worked out at 4 µg/mL (≈ 3.37 µM); in assay [2], 1 µg/mL (≈ 0.842 µM); in assay [3], 4 µg/mL (≈ 3.37 µM); in assay [4], 0.5 µg/mL (≈ 0.421 µM); in assay [5], 8 µg/mL (≈ 6.74 µM); in assay [6] it was 4 µg/mL (≈ 3.37 µM).

As to `CC(C)CCCCC(=O)N[C@@H](CCN)C(=O)N[C@@H](CC(C)C)C(=O)N[C@@H](CCN)C(=O)N[C@H]1CCNC(=O)[C@H]([C@@H](C)O)NC(=O)[C@H](CCN)NC(=O)[C@H](CCN)NC(=O)[C@H](CC(C)C)NC(=O)[C@@H](Cc2ccccc2)NC(=O)[C@H](CCN)NC1=O`, the MIC in assay [1] came to 2 µg/mL (≈ 1.66 µM); in assay [2], 2 µg/mL (≈ 1.66 µM); in assay [3], 8 µg/mL (≈ 6.66 µM); in assay [4], 0.25 µg/mL (≈ 0.208 µM); in assay [5] it was 1 µg/mL (≈ 0.832 µM); in assay [6] it was 1 µg/mL (≈ 0.832 µM).

In the case of `CC(C)CCCCC(=O)N[C@@H](CCN)C(=O)N[C@H](C(=O)N[C@@H](CCN)C(=O)N[C@H]1CCNC(=O)[C@H]([C@@H](C)O)NC(=O)[C@H](CCN)NC(=O)[C@H](CCN)NC(=O)[C@H](CC(C)C)NC(=O)[C@@H](Cc2ccccc2)NC(=O)[C@H](CCN)NC1=O)[C@@H](C)OC(=O)[C@H](C)N`, the MIC in assay [1] is 1 µg/mL (≈ 0.793 µM); in assay [2] it was 0.125 µg/mL (≈ 0.0992 µM); in assay [3] it was over 32 µg/mL; in assay [4], 0.25 µg/mL (≈ 0.198 µM); in assay [5], 0.25 µg/mL (≈ 0.198 µM); in assay [6], 2 µg/mL (≈ 1.59 µM).

With `CCCCCCCC(=O)N[C@@H](CCN)C(=O)N[C@H](C(=O)N[C@@H](CCN)C(=O)N[C@H]1CCNC(=O)[C@H](CCN)NC(=O)[C@H](CCN)NC(=O)[C@H](CCN)NC(=O)[C@H](CC(C)C)NC(=O)[C@@H](Cc2ccccc2)NC(=O)[C@H](CCN)NC1=O)[C@@H](C)O`, the MIC is 64 µg/mL (≈ 53.8 µM) in assay [1]; 0.25 µg/mL (≈ 0.21 µM) in assay [2]; 8 µg/mL (≈ 6.73 µM) in assay [3]; 8 µg/mL (≈ 6.73 µM) in assay [4]; 8 µg/mL (≈ 6.73 µM) in assay [5]; over 32 µg/mL in assay [6].
